In ChEMBL document CHEMBL5143665, “Discovery and preclinical evaluations of WX-0593, a novel ALK inhibitor targeting crizotinib-resistant mutations” (Bioorg Med Chem Lett, 2022):
Values belong to the compound of their own block, whether it stands above or below them. Calls of active or inactive are those of the source. The calls are words filed in the database; no cut-off is given here.

How the values were obtained:
BaF3 [1] = experiment: Antiproliferative activity against crizotinib resistant mouse BaF3 cells expressing EML4 fused ALK F1174C mutant assessed as reduction in cell viability incubated for 72 hrs by Celltitre-Glo luminescent assay; assay type: functional, cell-based; conditions: BaF3, 72 h
BaF3 [2] = experiment: Antiproliferative activity against mouse BaF3 cells harbouring SLC34A2-ROS1-L2026M mutant assessed as reduction in cell viability incubated for 72 hrs by Celltitre-Glo luminescent assay; assay type: functional, cell-based; conditions: BaF3, 72 h
BaF3 [3] = experiment: Antiproliferative activity against crizotinib resistant mouse BaF3 cells expressing EML4 fused ALK I1171T mutant assessed as reduction in cell viability incubated for 72 hrs by Celltitre-Glo luminescent assay; assay type: functional, cell-based; conditions: BaF3, 72 h
BaF3 [4] = experiment: Antiproliferative activity against crizotinib resistant mouse BaF3 cells expressing EML4 fused ALK L1152P mutant assessed as reduction in cell viability incubated for 72 hrs by Celltitre-Glo luminescent assay; assay type: functional, cell-based; conditions: BaF3, 72 h
BaF3 [5] = experiment: Antiproliferative activity against crizotinib resistant mouse BaF3 cells expressing EML4 fused ALK L1152R mutant assessed as reduction in cell viability incubated for 72 hrs by Celltitre-Glo luminescent assay; assay type: functional, cell-based; conditions: BaF3, 72 h
cells [6] = conditions: Mus musculus, Ba/F3 EML4-ALK, 72 h
BaF3 [7] = experiment: Antiproliferative activity against mouse BaF3 cells harbouring CD74-ROS1-S1986Y mutant assessed as reduction in cell viability incubated for 72 hrs by Celltitre-Glo luminescent assay; assay type: functional, cell-based; conditions: BaF3, 72 h
BaF3 [8] = experiment: Antiproliferative activity against crizotinib resistant mouse BaF3 cells expressing EML4 fused ALK I1171N mutant assessed as reduction in cell viability incubated for 72 hrs by Celltitre-Glo luminescent assay; assay type: functional, cell-based; conditions: BaF3, 72 h
BaF3 [9] = experiment: Antiproliferative activity against crizotinib resistant mouse BaF3 cells expressing EML4 fused ALK F1174V mutant assessed as reduction in cell viability incubated for 72 hrs by Celltitre-Glo luminescent assay; assay type: functional, cell-based; conditions: BaF3, 72 h
cells [10] = conditions: Mus musculus, BaF3, 72 h
cells [11] = conditions: Mus musculus, BaF3, 72 h; remark: listed apart in the source
cells [12] = conditions: Mus musculus, Ba/F3 EML4-ALK-G1202R, 72 h
BaF3 [13] = experiment: Antiproliferative activity against mouse BaF3 cells harbouring CD74-ROS1-S1986F mutant assessed as reduction in cell viability incubated for 72 hrs by Celltitre-Glo luminescent assay; assay type: functional, cell-based; conditions: BaF3, 72 h
BaF3 [14] = experiment: Antiproliferative activity against crizotinib resistant mouse BaF3 cells expressing EML4 fused ALK V1180L mutant assessed as reduction in cell viability incubated for 72 hrs by Celltitre-Glo luminescent assay; assay type: functional, cell-based; conditions: BaF3, 72 h
BaF3 [15] = experiment: Antiproliferative activity against crizotinib resistant mouse BaF3 cells expressing EML4 fused ALK I1171S mutant assessed as reduction in cell viability incubated for 72 hrs by Celltitre-Glo luminescent assay; assay type: functional, cell-based; conditions: BaF3, 72 h
cells [16] = conditions: Mus musculus, BaF3, 72 h; remark: listed apart in the source
BaF3 [17] = experiment: Antiproliferative activity against mouse BaF3 cells harbouring CD74-ROS1-D2033N mutant assessed as reduction in cell viability incubated for 72 hrs by Celltitre-Glo luminescent assay; assay type: functional, cell-based; conditions: BaF3, 72 h
BaF3 [18] = experiment: Antiproliferative activity against crizotinib resistant mouse BaF3 cells expressing EML4 fused ALK T1151Tins mutant assessed as reduction in cell viability incubated for 72 hrs by Celltitre-Glo luminescent assay; assay type: functional, cell-based; conditions: BaF3, 72 h
NCI-H3122 [19] = experiment: Inhibition of ERK phosphorylation in human NCI-H3122 cells by Western blotting analysis; assay type: cell-based; conditions: DDE = dose-dependent effect
[20] = target: T1, ALK tyrosine kinase receptor (Homo sapiens, UniProt Q9UM73)
Target sequence in this assay (Q9UM73 whole entry): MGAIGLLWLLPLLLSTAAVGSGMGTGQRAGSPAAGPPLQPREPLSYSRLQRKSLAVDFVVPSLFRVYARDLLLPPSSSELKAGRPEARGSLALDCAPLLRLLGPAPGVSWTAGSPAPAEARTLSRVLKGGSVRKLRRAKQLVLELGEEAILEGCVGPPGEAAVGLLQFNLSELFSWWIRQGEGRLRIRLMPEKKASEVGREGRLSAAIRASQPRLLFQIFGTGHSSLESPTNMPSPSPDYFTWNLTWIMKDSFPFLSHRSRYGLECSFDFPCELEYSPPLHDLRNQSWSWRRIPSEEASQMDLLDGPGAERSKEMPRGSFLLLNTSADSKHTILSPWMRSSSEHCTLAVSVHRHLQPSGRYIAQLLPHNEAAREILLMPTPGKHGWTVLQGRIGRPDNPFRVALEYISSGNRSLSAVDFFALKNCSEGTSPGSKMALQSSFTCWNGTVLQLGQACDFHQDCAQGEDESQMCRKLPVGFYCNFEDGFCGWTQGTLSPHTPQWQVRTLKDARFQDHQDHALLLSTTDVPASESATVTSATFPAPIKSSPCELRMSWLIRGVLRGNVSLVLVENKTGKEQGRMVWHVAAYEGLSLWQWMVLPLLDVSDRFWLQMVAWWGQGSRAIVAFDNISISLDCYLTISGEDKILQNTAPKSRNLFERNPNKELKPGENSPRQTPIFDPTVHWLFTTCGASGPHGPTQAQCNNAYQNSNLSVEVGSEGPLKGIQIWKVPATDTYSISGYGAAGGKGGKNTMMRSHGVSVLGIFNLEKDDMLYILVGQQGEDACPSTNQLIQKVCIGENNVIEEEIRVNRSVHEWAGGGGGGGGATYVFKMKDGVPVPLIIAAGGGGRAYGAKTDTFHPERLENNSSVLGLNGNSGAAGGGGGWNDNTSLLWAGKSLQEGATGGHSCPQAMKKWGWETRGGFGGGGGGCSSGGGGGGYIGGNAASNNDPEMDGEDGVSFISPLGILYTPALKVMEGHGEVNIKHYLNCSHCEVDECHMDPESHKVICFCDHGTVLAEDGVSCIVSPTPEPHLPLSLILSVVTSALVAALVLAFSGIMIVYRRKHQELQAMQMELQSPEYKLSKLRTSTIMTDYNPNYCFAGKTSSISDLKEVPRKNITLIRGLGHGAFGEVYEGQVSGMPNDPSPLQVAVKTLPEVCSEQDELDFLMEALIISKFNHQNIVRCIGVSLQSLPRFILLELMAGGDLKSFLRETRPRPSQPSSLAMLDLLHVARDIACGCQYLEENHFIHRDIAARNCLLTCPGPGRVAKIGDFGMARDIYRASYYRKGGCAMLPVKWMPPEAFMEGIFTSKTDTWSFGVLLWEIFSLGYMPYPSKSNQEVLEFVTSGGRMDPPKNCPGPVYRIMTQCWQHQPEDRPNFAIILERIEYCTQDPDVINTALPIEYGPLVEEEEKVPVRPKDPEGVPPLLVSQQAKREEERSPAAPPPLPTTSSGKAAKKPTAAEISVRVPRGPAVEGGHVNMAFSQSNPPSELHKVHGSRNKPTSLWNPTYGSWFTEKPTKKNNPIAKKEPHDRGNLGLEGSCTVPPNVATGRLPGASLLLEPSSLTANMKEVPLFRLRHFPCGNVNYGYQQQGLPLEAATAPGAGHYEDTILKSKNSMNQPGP

[21] = target: T1, ALK tyrosine kinase receptor; experiment: Inhibition of ALK phosphorylation in human NCI-H3122 cells by Western blotting analysis; assay type: cell-based; conditions: DDE = dose-dependent effect
Target sequence in this assay (Q9UM73 19-1620 limits assumed): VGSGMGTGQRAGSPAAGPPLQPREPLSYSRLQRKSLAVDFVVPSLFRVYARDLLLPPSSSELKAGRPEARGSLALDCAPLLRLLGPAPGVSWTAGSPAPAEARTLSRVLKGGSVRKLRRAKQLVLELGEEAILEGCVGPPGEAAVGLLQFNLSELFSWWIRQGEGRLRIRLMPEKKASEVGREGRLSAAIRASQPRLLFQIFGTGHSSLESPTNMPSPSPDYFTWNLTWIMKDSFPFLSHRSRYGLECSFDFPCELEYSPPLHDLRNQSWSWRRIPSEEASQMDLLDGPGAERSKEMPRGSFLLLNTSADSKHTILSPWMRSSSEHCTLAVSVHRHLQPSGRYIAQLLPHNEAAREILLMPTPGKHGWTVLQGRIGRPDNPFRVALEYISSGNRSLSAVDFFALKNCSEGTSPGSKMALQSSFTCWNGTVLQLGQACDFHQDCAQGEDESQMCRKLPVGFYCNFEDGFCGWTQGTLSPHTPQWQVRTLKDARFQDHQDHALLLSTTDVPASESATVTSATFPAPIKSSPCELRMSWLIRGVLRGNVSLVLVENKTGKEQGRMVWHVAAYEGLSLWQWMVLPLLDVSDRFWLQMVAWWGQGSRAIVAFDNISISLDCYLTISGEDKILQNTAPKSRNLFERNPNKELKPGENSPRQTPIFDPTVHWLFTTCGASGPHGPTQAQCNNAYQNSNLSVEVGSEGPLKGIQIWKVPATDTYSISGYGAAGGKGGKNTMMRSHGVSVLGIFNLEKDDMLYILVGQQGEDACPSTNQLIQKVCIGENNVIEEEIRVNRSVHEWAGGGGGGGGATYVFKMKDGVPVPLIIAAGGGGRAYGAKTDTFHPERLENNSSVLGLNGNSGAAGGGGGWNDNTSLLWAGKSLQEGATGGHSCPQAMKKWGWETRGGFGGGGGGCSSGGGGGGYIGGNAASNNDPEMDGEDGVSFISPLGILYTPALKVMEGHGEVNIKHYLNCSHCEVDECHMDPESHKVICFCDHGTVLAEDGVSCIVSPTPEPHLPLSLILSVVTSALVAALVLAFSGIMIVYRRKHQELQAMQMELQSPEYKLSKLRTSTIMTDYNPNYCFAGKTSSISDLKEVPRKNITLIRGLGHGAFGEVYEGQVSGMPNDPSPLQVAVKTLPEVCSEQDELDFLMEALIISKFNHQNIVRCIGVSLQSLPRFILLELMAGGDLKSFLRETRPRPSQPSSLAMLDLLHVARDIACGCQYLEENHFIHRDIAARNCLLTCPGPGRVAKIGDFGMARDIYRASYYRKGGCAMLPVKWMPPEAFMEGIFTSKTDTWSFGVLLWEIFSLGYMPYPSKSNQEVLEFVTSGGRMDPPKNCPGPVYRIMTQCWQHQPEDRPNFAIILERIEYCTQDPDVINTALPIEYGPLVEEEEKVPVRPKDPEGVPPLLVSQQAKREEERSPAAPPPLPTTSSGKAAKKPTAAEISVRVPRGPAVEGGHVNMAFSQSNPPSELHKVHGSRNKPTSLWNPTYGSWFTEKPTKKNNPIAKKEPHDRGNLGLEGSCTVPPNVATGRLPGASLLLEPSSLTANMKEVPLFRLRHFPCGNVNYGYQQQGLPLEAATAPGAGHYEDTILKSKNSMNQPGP

[22] = Clearance in Beagle dog at 1 mg/kg, iv; assay type: ADME, organism-based, Canis lupus familiaris; conditions: in vivo
BaF3 [23] = experiment: cells; conditions: Mus musculus
Description: Antiproliferative activity against mouse BaF3 cells harbouring ALK wild type assessed as reduction in cell viability by Celltitre-Glo luminescent assay

LU-01-0319 = experiment: Antitumor activity against crizotinib-resistant patient derived LU-01-0319 cells xenografted in mouse assessed as tumor regression at 2.5 mg/kg, po; assay type: functional, organism-based; conditions: Homo sapiens
BaF3 [24] = experiment: cells; conditions: Mus musculus; remark: listed apart in the source
Description: Antiproliferative activity against mouse BaF3 cells harbouring ALK L1196M mutant assessed as reduction in cell viability by Celltitre-Glo luminescent assay

[25] = Toxicity in nude mouse xenografted with crizotinib-resistant patient derived LU-01-0319R cells assessed as tolerance at 2.5 to 10 mg/kg, po dosed once daily for 21 days; assay type: organism-based; conditions: in vivo, 504 h, dose 2.5-10 mg/kg, time 21 day
[26] = AUC (0 to last) in Cynomolgus monkey at 2 mg/kg, po; assay type: ADME, organism-based, Macaca fascicularis; set-up: time 0 - last, dose 2 mg/kg, route po; conditions: in vivo
[27] = AUC (0 to last) in Balb/c nude mouse at 5 mg/kg, po; assay type: ADME, organism-based; set-up: time 0 - last, dose 5 mg/kg, route po; conditions: in vivo
[28] = Cmax in Cynomolgus monkey at 2 mg/kg, po; assay type: ADME, organism-based, Macaca fascicularis; set-up: dose 2 mg/kg, route po; conditions: in vivo
[29] = Cmax in Balb/c nude mouse at 5 mg/kg, po; assay type: ADME, organism-based; set-up: dose 5 mg/kg, route po; conditions: in vivo
[30] = Oral bioavailability in Balb/c nude mouse at 5 mg/kg; assay type: ADME, organism-based; conditions: in vivo
[31] = AUC (0 to last) in Sprague-Dawley rat at 8 mg/kg, po; assay type: ADME, organism-based; set-up: time 0 - last, dose 8 mg/kg, route po; conditions: in vivo
BaF3 [32] = experiment: cells; conditions: Mus musculus; remark: listed apart in the source
Description: Antiproliferative activity against mouse BaF3 cells harbouring ALK C1156Y mutant assessed as reduction in cell viability by Celltitre-Glo luminescent assay

NCI-H3122 [33] = experiment: Inhibition of AKT phosphorylation in human NCI-H3122 cells at highest concentration by Western blotting analysis; assay type: cell-based
[34] = target: ALK tyrosine kinase receptor (Homo sapiens, UniProt Q9UM73, C1156Y)
[35] = Half-life in Beagle dog at 1 mg/kg, iv; assay type: ADME, organism-based, Canis lupus familiaris; conditions: in vivo
[36] = Half-life in Balb/c nude mouse at 1 mg/kg, iv; assay type: ADME, organism-based; conditions: in vivo
[37] = target: T2, Signal transducer and activator of transcription 5A (Homo sapiens) (UniProt P42229); experiment: Inhibition of STAT5 phosphorylation in human NCI-H3122 cells by Western blotting analysis; assay type: cell-based; conditions: DDE = dose-dependent effect
T2 sequence (whole entry): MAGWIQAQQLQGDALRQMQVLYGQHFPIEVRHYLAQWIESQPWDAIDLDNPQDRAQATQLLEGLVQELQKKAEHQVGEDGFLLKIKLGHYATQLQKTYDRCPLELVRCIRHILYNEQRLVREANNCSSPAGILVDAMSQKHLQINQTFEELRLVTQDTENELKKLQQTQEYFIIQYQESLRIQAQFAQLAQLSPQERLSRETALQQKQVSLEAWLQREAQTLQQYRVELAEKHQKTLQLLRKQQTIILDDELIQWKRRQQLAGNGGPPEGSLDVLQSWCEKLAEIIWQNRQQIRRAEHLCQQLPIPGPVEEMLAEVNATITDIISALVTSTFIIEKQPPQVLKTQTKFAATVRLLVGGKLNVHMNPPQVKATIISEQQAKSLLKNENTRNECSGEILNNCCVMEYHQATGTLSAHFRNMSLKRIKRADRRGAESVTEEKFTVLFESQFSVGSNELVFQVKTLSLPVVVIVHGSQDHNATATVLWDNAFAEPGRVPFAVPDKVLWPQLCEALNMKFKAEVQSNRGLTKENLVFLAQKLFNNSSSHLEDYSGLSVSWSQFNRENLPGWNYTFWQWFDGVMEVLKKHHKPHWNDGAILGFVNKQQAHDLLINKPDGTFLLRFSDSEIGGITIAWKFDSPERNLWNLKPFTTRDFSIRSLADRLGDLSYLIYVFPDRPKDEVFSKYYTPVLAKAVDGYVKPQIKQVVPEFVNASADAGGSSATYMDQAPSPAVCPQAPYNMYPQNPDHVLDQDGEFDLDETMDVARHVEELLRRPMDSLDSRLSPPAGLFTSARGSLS

[38] = Clearance in Balb/c nude mouse at 1 mg/kg, iv; assay type: ADME, organism-based; conditions: in vivo
[39] = Volume of distribution at steady state in Beagle dog at 1 mg/kg, iv; assay type: ADME, organism-based, Canis lupus familiaris; conditions: in vivo, read-out: Vdss
[40] = Toxicity in nude mouse xenografted with crizotinib-resistant patient derived LU-01-0319R cells assessed as body weight change at 2.5 to 10 mg/kg, po dosed once daily for 21 days; assay type: organism-based; conditions: in vivo, 504 h, dose 2.5-10 mg/kg, time 21 day
[41] = Cmax in Sprague-Dawley rat at 8 mg/kg, po; assay type: ADME, organism-based; set-up: dose 8 mg/kg, route po; conditions: in vivo
KARPAS-299 = experiment: cells; conditions: Homo sapiens
Description: Antiproliferative activity against human KARPAS-299 cells harbouring wild type ALK assessed as reduction in cell viability by Celltitre-Glo luminescent assay

LU-01-0319R [42] = experiment: Antitumor activity against crizotinib-resistant patient derived LU-01-0319R cells xenografted in nude mouse at 2.5 to 10 mg/kg, po dosed once daily for 21 days; assay type: functional, organism-based; conditions: Homo sapiens, dose 2.5-10 mg/kg, time 21.0 day
[43] = Volume of distribution at steady state in Balb/c nude mouse at 1 mg/kg, iv; assay type: ADME, organism-based; conditions: in vivo, read-out: Vdss
LU-01-0319R [44] = experiment: Antitumor activity against crizotinib-resistant patient derived LU-01-0319R cells xenografted in nude mouse assessed as tumor regression at 10 mg/kg, po dosed once daily for 21 days; assay type: functional, organism-based; conditions: Homo sapiens, time 21.0 day

Chain of ALK tyrosine kinase receptor (Homo sapiens, UniProt Q9UM73, C1156Y) (Q9UM73 19-1620 C1156Y limits assumed): as the sequence (Q9UM73 19-1620 limits assumed) above, with C1138Y counted along it

IC50 (BaF3 [1]): 0.098 µM | IC50 (BaF3 [2]): 0.048 µM | IC50 (BaF3 [3]): 0.019 µM | IC50 (BaF3 [4]): 0.001 µM | IC50 (BaF3 [5]): 0.01 µM | IC50 (cells [6]): 0.025 µM | IC50 (BaF3 [7]): 0.012 µM | IC50 (BaF3 [8]): 0.035 µM | IC50 (BaF3 [9]): 0.047 µM | IC50 (cells [10]): 0.031 µM | IC50 (cells [11]): 0.022 µM | IC50 (cells [12]): 0.34 µM | IC50 (BaF3 [13]): 0.02 µM | IC50 (BaF3 [14]): 0.01 µM | IC50 (BaF3 [15]): 0.093 µM | IC50 (cells [16]): 0.031 µM | IC50 (BaF3 [17]): 0.036 µM | IC50 (BaF3 [18]): 0.035 µM
SMILES: COc1cc(N2CCC(N3CCN(C)CC3)CC2)ccc1Nc1ncc(Cl)c(Nc2ccccc2P(C)(C)=O)n1 [BRIGATINIB]

IC50 (BaF3 [1]): 0.036 µM | IC50 (BaF3 [2]): 0.012 µM | IC50 (BaF3 [3]): 0.011 µM | IC50 [20]: 0.0016 µM | IC50 (BaF3 [4]): 0.001 µM | inhibition [21]: Dde | clearance [22]: 8.6 mL/min/kg | IC50 (BaF3 [23]): 0.013 µM | IC50 (BaF3 [5]): 0.004 µM | IC50 (BaF3 [24]): 0.024 µM | IC50 (cells [6]): 0.021 µM | AUC(0-t) [26]: 598 ng·h/mL | IC50 (BaF3 [7]): 0.015 µM | IC50 (BaF3 [8]; read-out: IC50): 0.017 µM | AUC(0-t) [27]: 2450 ng·h/mL | Cmax [28]: 92.2 ng/mL | Cmax [29]: 741 ng/mL | bioavailability [30]: 66.2% | IC50 (BaF3 [9]): 0.022 µM | IC50 (cells [10]): 0.036 µM | IC50 (cells [11]): 0.011 µM | AUC(0-t) [31]: 4000 ng·h/mL | IC50 (BaF3 [32]): 0.021 µM | IC50 (cells [12]): 0.096 µM | IC50 [34]: 0.0018 µM | half-life [35]: 6.47 h | half-life [36]: 1.38 h | inhibition [37]: Dde | clearance [38]: 22.4 mL/min/kg | IC50 (BaF3 [13]): 0.022 µM | Vd [39]: 4.6 L/kg | IC50 (BaF3 [14]): 0.008 µM | IC50 (BaF3 [15]): 0.032 µM | IC50 (cells [16]): 0.036 µM | IC50 (BaF3 [17]): 0.033 µM | Cmax [41]: 499 ng/mL | IC50 (BaF3 [18]; read-out: IC50): 0.012 µM | IC50 (KARPAS-299): 0.0145 µM | Vd [43]: 2.33 L/kg
SMILES: COc1cc(N2CCC3(CCN(C)CC3)CC2)ccc1Nc1ncc(Cl)c(Nc2ccccc2P(C)(C)=O)n1 [IRUPLINALKIB]
inhibition (NCI-H3122 [19]): Dde | Activity (LU-01-0319): Active | Activity [25]: Non-Toxic | inhibition (NCI-H3122 [33]): Active | Activity [40]: Non-Toxic | Activity (LU-01-0319R [42]): Active | Activity (LU-01-0319R [44]): Active
